Measured values as given in PubChem BioAssay AID488878 (Sanford-Burnham Center for Chemical Genomics, 2010).
The source made the active and inactive calls. How the calls were made is not given here.

biological target: Alkaline phosphatase, placental type (Homo sapiens) (UniProt P05187); experiment: activation of placental alkaline phosphatase – biochemical, uHTS hits, mouse IAP activator project, dose response (AID 488878); details: purified human PLAP enzyme activity

SMILES	EC50
O=C(CCN1C(=O)/C(=C/c2ccco2)SC1=S)Nc1ccc(C(=O)O)c(O)c1	27.6 µM
COc1ccc(NC(=O)CCNS(=O)(=O)c2ccc3[nH]c(=O)oc3c2)cc1Cl	54 µM
Cc1ccc(NS(=O)(=O)c2ccc3[nH]c(=O)oc3c2)c(C)c1	89 µM
Oc1cc2c(cc1O)C1c3ccc(O)c(O)c3OCC1(O)C2 (configuration not stated)	60.4 µM
NS(=O)(=O)c1ccc(NC(=S)NC(=O)/C=C/c2ccco2)cc1	> 100 µM (inactive)
N#Cc1cccc(NC(=O)CCNS(=O)(=O)c2ccc3[nH]c(=O)oc3c2)c1	89.7 µM
C=CCn1c(SCC(=O)c2ccc(O)c(O)c2)nnc1-c1cccc(OC)c1	47.8 µM
CCOC(=O)C(C)Sc1nc2c(c(=O)[nH]c(=O)n2C)n1C/C=C(/C)Cl (configuration not stated)	84.8 µM
O=C(O)CC(CCc1ccccc1)OC1OC(CO)C(O)C(O)C1O (configuration not stated)	73 µM
NS(=O)(=O)c1cc(C(=O)NC2CCSc3ccccc32)ccc1Cl (configuration not stated)	63.9 µM
COc1ccc(OC)c(NC(=O)CCNS(=O)(=O)c2ccc3[nH]c(=O)oc3c2)c1	> 100 µM (inactive)
O=C(N/N=C/c1ccc(O)c(O)c1)N/N=C/c1ccc(O)c(O)c1	29.6 µM
S=C(NCc1ccccc1)NC1CCSc2ccccc21 (configuration not stated)	> 100 µM (inactive)
O=C(Nc1ccc(Cl)c(C(F)(F)F)c1)NC1CC2CCCC(C1)N2Cc1ccccc1 (configuration not stated)	> 100 µM (inactive)
CCOc1cc(/C=C2\CCC/C(=C\c3cc(Cl)c(O)c(OCC)c3)C2=O)cc(Cl)c1O	> 100 µM (inactive)
Oc1cc(O)c2c(c1)O[C@H](c1ccc(O)c(O)c1)[C@H](O)C2	51.3 µM
NS(=O)(=O)c1ccc(-c2ccc(/C=C3\SC(=S)N(C4CCS(=O)(=O)C4)C3=O)o2)cc1 (configuration not stated)	17.6 µM
Cc1cc(O)c2c(c1O)C(=O)[C@]13C(=C2O)C(=O)[C@@H]2[C@@H](O)[C@H]1[C@@H]1[C@H](O)[C@H]3C(=O)C3=C(O)c4c(O)cc(C)c(O)c4C(=O)[C@]312	66.3 µM
CN(CC(=O)Nc1cccc(Cl)c1)S(=O)(=O)c1ccc2[nH]c(=O)oc2c1	> 100 µM (inactive)
NNC(=O)c1cc(O)c(O)c(O)c1	69.3 µM
CC(C(=O)Nc1ccc(C(=O)O)c(O)c1)N1C(=O)/C(=C\c2ccco2)SC1=S (configuration not stated)	76.8 µM
Oc1ccc(-c2csc(Nc3ccccn3)n2)cc1O	45.8 µM
O=C1/C(=C/C=C/c2ccco2)SC(=S)N1NS(=O)(=O)c1ccccc1	> 100 µM (inactive)

SMILES	EC50
O=C(NN1C(=O)/C(=C/C=C/c2ccco2)SC1=S)c1ccncc1	> 100 µM (inactive)
O=C(CSc1nc2ccccc2o1)N/N=C/c1ccc(O)c(O)c1	67.5 µM
O=C1NC(=S)NC(=O)C1=Cc1ccc(Br)s1	59.6 µM
CCn1c(CSc2nc3ccccc3s2)nnc1SCC(=O)c1ccc(O)c(O)c1	31.7 µM
Cc1ccc(NC(=O)CN(C)S(=O)(=O)c2ccc3[nH]c(=O)oc3c2)c(C)c1	64.6 µM
Cc1ccc(NC(=O)CCNS(=O)(=O)c2ccc3[nH]c(=O)oc3c2)c(Cl)c1	26.3 µM
CCn1nc(C)c(CN2CCC(C(=O)Nc3cccc(-c4cccc(F)c4)c3)CC2)c1C	65.1 µM
O=C(/C=C/c1ccco1)NC(=S)Nc1cccc(C(=O)O)c1	46.8 µM
CN(C)c1ccc(N=Nc2nc3ccccc3n2C)cc1	48.3 µM
Oc1ccc(/C=N/Nc2cc(N3CCCC3)nc(N3CCCC3)n2)cc1O	> 100 µM (inactive)
O=C(CN1C(=O)/C(=C/c2ccco2)SC1=S)Nc1ccc(C(=O)O)c(O)c1	> 100 µM (inactive)
Cc1cc(/C=C2\SC(=S)NC2=O)c(C)[nH]1	61.1 µM
CN(CCO)c1ccc(C=NNc2ccc([N+](=O)[O-])cc2S(=O)(=O)Nc2ccccc2C(=O)O)cc1	26 µM
O=C1NC(=S)NC(=O)C1=Cc1ccc2c(c1)CCN2CCCCl	57.5 µM
Oc1ccc(-c2cn3c(n2)SCC3)cc1O	55.6 µM
Cc1ccc(NC(=O)CCNS(=O)(=O)c2ccc3[nH]c(=O)oc3c2)cc1F	> 100 µM (inactive)
O=c1cc(-c2ccc(O)cc2)oc2c(O)c(O)c(O)c(O)c12	59.6 µM
COc1ccccc1CNC(=O)CCNS(=O)(=O)c1ccc2[nH]c(=O)oc2c1	49 µM
O=C(CSc1n[nH]c(-c2ccccc2)n1)c1ccc(O)c(O)c1	65.3 µM
Cc1ccc(C(=O)Nc2nnc(CC(=O)N/N=C/c3ccc(O)c(O)c3)s2)cc1	49.7 µM
O=C(N/N=C/c1ccc(O)cc1O)C(=O)N/N=C/c1ccc(O)cc1O	> 100 µM (inactive)
O=C1CC(c2ccc(O)c(O)c2)Oc2cc(O)cc(O)c21 (configuration not stated)	60.3 µM
O=C(CCO)c1ccc(O)cc1	18.9 µM

SMILES	EC50
O=C(O)C(c1ccccc1)N1C(=O)/C(=C\c2ccc(O)c(O)c2)SC1=S (configuration not stated)	62.9 µM
CC(C)c1ccc(NC(=O)NC2CCN(CC(=O)Nc3cccc4ccccc34)CC2)cc1	55.9 µM
C[N+](C)(C)C(Cc1ccccc1)C(=O)[O-] (configuration not stated)	59.7 µM
CCN1/C(=C/C=C/c2oc3ccc(-c4ccccc4)cc3[n+]2CC)Oc2ccc(-c3ccccc3)cc21	24.5 µM
CNc1nnc(-c2cc3ccccc3oc2=O)s1	> 100 µM (inactive)
O=C(N/N=C/c1ccc([N+](=O)[O-])o1)c1sc2ccccc2c1Cl	> 100 µM (inactive)
O=C(Cc1nnc(NC(=O)c2ccccc2)s1)N/N=C\c1ccc(O)c(O)c1	> 100 µM (inactive)
Cc1cc(=O)[nH]c(N/N=C/c2ccc(O)c(O)c2)n1	65.7 µM
Nc1cc2nc3ccccc3oc-2cc1=O	57.2 µM
Cc1cc(C)c(S(=O)(=O)Nc2ccc(O)c(Sc3ncn[nH]3)c2)cc1C	55 µM
O=C(CCCN1C(=O)/C(=C\c2ccco2)SC1=S)Nc1ccc(O)cc1C(=O)O	44.7 µM
O=C(O)CC(C(=O)O)N1C(=O)/C(=C/c2ccc(-c3nc4ccccc4s3)o2)SC1=S (configuration not stated)	60.8 µM
COc1cc(OC)c(NC(=O)CN(C)S(=O)(=O)c2ccc3[nH]c(=O)oc3c2)cc1Cl	69.8 µM
CSC1=NSC2=NC(=O)/C(=C/c3coc4ccc(O)cc4c3=O)C(=N)N12	27.2 µM
CCN1/C(=C/c2ccc3cc(C)ccc3[n+]2CC)Sc2ccc3sccc3c21	65.3 µM
COc1cccc(CNC(=O)CCNS(=O)(=O)c2ccc3[nH]c(=O)oc3c2)c1	> 100 µM (inactive)
O=C(CN1C(=O)/C(=C/c2ccco2)SC1=S)NC1CCS(=O)(=O)C1 (configuration not stated)	> 100 µM (inactive)
COc1cccc(C(C)NC(=O)Nc2cccc(C(F)(F)F)c2)c1 (configuration not stated)	> 100 µM (inactive)
O=c1oc2cc(O)ccc2s1	12 µM
N#C/C(=C\c1coc2ccc(O)cc2c1=O)C(=O)Nc1nc2ccccc2s1	91.1 µM
O=C(NNC(=S)NC(=O)c1cccs1)c1ccc(O)cc1	36.8 µM
COc1cc(/C=C(\C#N)C(=O)c2ccc(O)c(O)c2)cc(I)c1O	> 100 µM (inactive)
O=C(CN1CCN(c2ccccc2F)CC1)c1ccc(O)c(O)c1	> 100 µM (inactive)

SMILES	EC50
O=c1[nH]c(/C=C\c2ccc(O)c(O)c2)nc(O)c1[N+](=O)[O-]	> 100 µM (inactive)
Oc1ccc(/C=N/N=C/c2ccc(O)c(O)c2)cc1O	68 µM
COc1ccc(OC)c(S(=O)(=O)Nc2ccc(O)c(Sc3ncn[nH]3)c2)c1	57.5 µM
O=[N+]([O-])c1cc(S(=O)(=O)c2ccc(O)c([N+](=O)[O-])c2)ccc1O	> 100 µM (inactive)
CC1(C(=O)NNC(=O)c2ccc(=O)oc2)CC1Br (configuration not stated)	57.9 µM
Oc1ccc(C[C@H]2NCCc3cc(O)c(O)cc32)cc1O	> 100 µM (inactive)
O=C(O)Cc1ccc(O)c(O)c1	> 100 µM (inactive)
COc1ccc(S(=O)(=O)Nc2ccc(O)c(Sc3ncn[nH]3)c2)cc1	68.6 µM
O=C(COC(=O)c1ccc(Br)o1)Nc1ncc([N+](=O)[O-])s1	60.5 µM
O=C(N/N=C/c1cn(Cc2cccc(F)c2)c2ccccc12)c1cc(O)cc(O)c1	53.3 µM
COc1ccc(N=C2SC(C(N)=O)CC(=O)N2CCc2ccc(OC)c(OC)c2)cc1 (configuration not stated)	26.1 µM
O=S(=O)(c1cc(O)ccc1O)c1cccc2c(S(=O)(=O)c3cc(O)ccc3O)cccc12	24.3 µM
CCOC(=O)CN1C(=O)/C(=C2\SC(=S)N(NC(=O)c3cccnc3)C2=O)c2ccccc21	35.1 µM
Cc1ccc(C)c(NC(=O)CCNS(=O)(=O)c2ccc3[nH]c(=O)oc3c2)c1	> 100 µM (inactive)
CC1CC(=O)c2c(cc3c(-c4c(O)cc(O)c5c(O)c6c(cc45)OC(C)CC6=O)c(O)cc(O)c3c2O)O1 (configuration not stated)	21.1 µM
Cc1c(CN2CCC(C(=O)Nc3cccc(-c4cccc(Cl)c4)c3)CC2)cnn1C	71.6 µM
Cc1ccc(/C=C2/SC(=O)NC2=S)o1	55.9 µM
O=C1C=C(O)c2c(O)cc(O)c(O)c2C1=O	> 100 µM (inactive)
Cc1ccc(C)c(S(=O)(=O)Nc2ccc(O)c(Sc3ncn[nH]3)c2)c1	13.1 µM
Cc1ccc(N2C(=O)/C(=C/c3ccc(CN(CCC#N)S(C)(=O)=O)o3)C(=O)NC2=S)cc1	40.7 µM
N#C/C(=C\c1ccc(O)c(O)c1)C(=O)c1ccc(O)c(O)c1	8.03 µM
Cc1ccc(CN2C3CCCC2CC(NC(=S)NCc2ccccc2)C3)cc1 (configuration not stated)	> 100 µM (inactive)
O=C1/C(=C/C=C/c2ccco2)SC(=S)N1c1ccc(O)cc1	61.8 µM
